Source: patent publication EP3748362A1, “IN VITRO METHOD FOR DETECTING RENAL DISEASE” (Fundacion Instituto De Investigacion Sanitaria Fundacion …, priority 2019, dated 2020)
“Also recorded” adds a separate entry of the source.

Key:
TRAF3 [1] = test: Renal TRAF3 (western blot), TWEAK-mediated renal inflammation in mice; format: in vivo; details: TWEAK 0.5 µg model; paricalcitol 750 ng/kg/day i.p.; sacrificed 24 hours after TWEAK
Protocol: (§1) All animal procedures were performed according to the guidelines of animal research in the European Community and with prior approval by the Ethics Committee of the Health Research of the IIS-Fundacion Jiménez Díaz. For in vivo studies, mice received a daily intraperitoneal injection of the VDRA Paricalcitol starting 48 hours prior to induction of kidney damage.
(§2) At the time of sacrifice, animals were anesthetized with 5 mg/kg xylazine (Rompun, Bayer AG) and 35 mg/kg ketamine (Ketolar, Pfizer) and the kidneys perfused in situ with cold saline before removal. Then, kidney portions were fixed in formalin buffer for immunohistochemistry studies or immediately frozen in liquid nitrogen for gene and protein studies.
(§3) TWEAK administration: C57BL/6 female mice (9-12 weeks, weight 20 g, 7-8 animals per group), received a single intraperitoneal injection of 0.5 µg TWEAK dissolved in saline and were sacrificed 24 hours later, as previously described (Sanz et al. 2008). Controls were injected with the saline vehicle (n=8-10 mice per group). TWEAK endotoxin level were <0.1 ng/mg, confirmed by MALDI-TOF. […]
(§4) For western blot, cell (25 µg/lane) and kidney (100-150 µg/lane) protein extracts were separated on 6%-12% polyacrylamide-SDS gels under reducing conditions. […] Autoradiographs were scanned using the Gel Doc™ EZ imager and analyzed with the Image Lab 3.0 software (BioRad).

[2] = system: TWEAK-induced renal inflammation; test: TWEAK-induced renal inflammation in mice (immunohistochemistry, real time PCR, ELISA); format: in vivo, C57BL/6 mice; details: TWEAK-injected mice, paricalcitol 750 ng/kg/day or SN52 0.7 mg/mouse/day
Protocol: as §1
At the time of sacrifice, animals were anesthetized with 5 mg/kg xylazine (Rompun, Bayer AG) and 35 mg/kg ketamine (Ketolar, Pfizer) and the kidneys perfused in situ with cold saline before removal. […]
Paraffin-embedded kidney sections (3 µm) were stained using conventional methods. […] For each sample (processed by duplicate in a blinded manner), the average value was obtained from the analysis of 4 fields (20X objective) as density/mm2 or percentage stained area vs total analyzed area. Data are expressed as fold increase over control mice, as mean ± SEM of 8-10 animals per group. […]
ELISA was used to evaluate levels of the chemokines CCL2 and CCL5 (eBioscience). In renal samples, total protein content was determined by the BCA method, and equal amounts of protein were analyzed. Data are expressed as n-fold increase over the mean of control levels.
Total RNA was isolated from cells and mouse kidney samples with Trizol (Invitrogen). […] The mRNA copy numbers were calculated for each sample by the instrument software using Ct value. […]

NF-κB1 = test: Canonical NF-κB1 activation in kidneys of TWEAK-injected mice; format: in vivo; details: kidneys from TWEAK-injected mice; paricalcitol 750 ng/kg/day
Protocol: as §1, §2, §3, §4

TRAF3 [3] = test: Renal TRAF3 (western blot), unilateral ureteral obstruction in mice; format: in vivo; details: paricalcitol 750 ng/kg/day i.p., studied after 5 days
Protocol: as §1, §2
Unilateral ureteral obstruction (UUO) was established in male C57BL/6 mice, under isoflurane-induced anesthesia. […]
as §4

`C[C@H](/C=C/[C@H](C)C(C)(C)O)[C@H]1CC[C@H]2/C(=C/C=C3C[C@@H](O)C[C@H](O)C3)CCC[C@]12C` [paricalcitol] was tested, and the “renal TRAF3 protein levels” value (TRAF3 [1]) was “restored renal TRAF3 protein levels to values of control mice”, the “proinflammatory factors, such as CCL2, CCL5 and IL-6” value ([2]; kidney, real time PCR, ELISA) was “significantly decreased” and the “infiltrating monocytes/macrophages (F4/80+ cells), T lymphocytes (CD3+ cells)” value ([2]; kidney immunohistochemistry) was “significantly decreased”. For the same compound, the “IκBα phosphorylation and nuclear p65 NF-κB levels” value (NF-κB1) was “not modulated; also recorded: not modified” and the “renal TRAF3 protein levels” value (TRAF3 [3]) was “restored renal TRAF3 protein levels to values of control mice”.
